In patent publication US20150353626A1, “APOLIPOPROTEIN A-I DERIVED PEPTIDES FOR TREATMENT OF HYPERGLYCAEMIA” (priority 2013, published 2015):

Legend:
Assay type in all cases: cell-based
[1] = tested on: GLUT4; experiment: GLUT4 translocation to plasma membrane in primary FDB muscle fibers (HA immunofluorescence, ex vivo); conditions: FDB fibers of HA-GLUT4-GFP mouse, 60 minutes, insulin 100 nmol/l, FIGS. 1d/7d, 4c/9a
Procedure: To support the glucose uptake observations described in Example 2, the ability of rHDL and the 190-243 polypeptide fragment (SEQ ID NO:1) to increase the amount of GLUT4 in the plasma membrane was assessed by immunofluorescence microscopy of intact primary skeletal flexor digitorum brevis (FDB) muscle fibers, isolated from a transgenic mouse model with muscle-specific HA-GLUT4-GFP expression (Lizunov et al. (2012) Am J Physiol Endocrinol Metab 302: E950-960). The HA epitope present on the first exofacial loop of the HA-GLUT4-GFP construct allows detection of GLUT4 inserted into the plasma membrane. Intact FDB fibers were incubated ex vivo with rHDL followed by fixation and HA antibody labeling of non-permeabilized cells as described below.
Two to five transgenic mice (C57/Bl6; 10-14 weeks) with muscle specific HA-GLUT4-GFP expression (gift from S. Cushman) (Lizunov et al. (2012) Am J Physiol Endocrinol Metab 302: E950-960), were used for each condition. The animals were euthanized and flexor digitorum brevis (FDB) muscles dissected out and incubated with oxygenated Krebs-Henseleit carbonate Hepes (KRBH) buffer (6 mmol/l KCl, 1 mmol/l Na2HPO4, 0.2 mmol/l NaHPO4, 1.4 mmol/l MgSO4, 1 mmol/l CaCl2, 128 mmol/l NaCl, 10 mmol/l HEPES pH 7.4) with 0.5% (w/v) bovine serum albumin. […]

[2] = tested on: rat adipocytes; experiment: Glucose uptake in isolated rat adipocytes; conditions: insulin 100 nmol/l, 190-243 fragment 30 μg/ml, FIG. 9b
Procedure: Adipose cells were prepared as previously described (Rodbell (1964) J Biol Chem. 239: 375-80). In brief, epidydymal fat pads were minced and digested in Krebs-Ringer-bicarbonate-HEPES (KRBH) buffer, pH 7.4, containing 10 mM sodium bicarbonate, 30 mM HEPES, 200 nM adenosine, 1% bovine serum albumin (BSA) with 1 mg/ml collagenase. After digestion, the cells were filtered through nylon mesh (250 μm) and washed with KRBH-buffer.
Isolated rat adipocytes were treated for 60 min with insulin (100 nmol/l), 190-243 polypeptide fragment (having the amino acid sequence consisting of SEQ ID NO:1) (30 μg/ml) or 1-243 human apoA-I protein (150 μg/ml) followed by glucose uptake measurement by addition of UC14 tracer glucose (Perkin Elmer) (30 min). The uptake was terminated by centrifugation through dinonyl phtalate oil. Incubation with Cytochalasin B was used to subtract unspecific background binding. Amount of glucose was detected as count radioactivity measured by Beta CounterThe amount of glucose transported was measured using an isotope labeled UC14-assay.

[3] = tested on: L6 myotubes; experiment: Glucose uptake in L6 myotubes (2-[3H]-deoxy-D-glucose)
Procedure: L6 myoblasts (ATCC #CRL-1458) were grown in α-MEM (Invitrogen) supplemented with 10% FBS (Sigma) and 1% antibiotic/antimycotic (Penicillin, streptomycin, amphotericin B; Invitrogen). Differentiation to myotubes was achieved by switching from growth media to 2% FBS a-MEM for 6-7 or 6-12 days. Cells were maintained at 37° C. and 5% CO2.
Prior to stimulation (or treatment) cells were starved for 2 hours in serum-free a-MEM and all subsequent treatments, which were performed in triplicate and included cytochalasin B (Sigma) as a measure of cell associated non-specific radioactivity, were performed in uptake buffer (140 mmol/l NaCl, 20 mmol/l HEPES, 5 mmol/l KCl, 2.5 mmol/l MgSO4, 1 mmol/l CaCl2, pH 7.4). After stimulation, treatments were replaced with 10 μmol/l 2-deoxy-D-glucose (Sigma), 10 μmol/l 2-[3H]-deoxy-D-glucose (Perkin Elmer) in uptake buffer for 15 mins at room temperature. Cells were then washed twice with ice cold PBS and lysed with 1 mol/l NaOH on ice. Lysates were collected and radioactivity quantified by scintillation counting.
In order to investigate the effect of discodial HDL (rHDL) on GLUT4 translocation and glucose uptake, we produced recombinant human apoA-I and reconstituted HDL needed for cell incubations. L6 myotubes were incubated with 50 μg/ml (1.6 μmol/l) apoA-I for 1 hour followed by a glucose uptake assay as described above. […] Next, L6 myotubes were treated by incubation with 50 μg/ml discodial rHDL (expressed as total concentration of apoA-I in rHDL, given 2 apoA-I molecules per particle) for 1 hour. […] This experiment was thereafter repeated in more controlled manner including cell number and quality (cells were similarly treated during differentiation from myoblasts to multinuclear myotubes, with respect to the time between splitting cells, cell density, passage of cells used.) (FIG. 7c).
The relative effect of specific regions of apoA-I to increase glucose uptake was investigated using truncated protein fragments corresponding to residues 1-189 (N-terminal/central domain), 44-189 (central domain), 44-243 (central/C-terminal domain) and 190-243 (C-terminal domain) of full-length apoA-I (FIG. 4a). The treatments with incubation of truncated protein fragments were performed as described above for treatment of L6 myotubes with full-length apoA-I and followed by a glucose uptake assay as described above.
To test for the contribution of the constituent phospholipid to rHDL-induced glucose uptake in L6 myotubes, rHDL made with DMPC was also produced and compared to 100 nm DMPC vesicles containing no apoA-I protein. Stable 100 nm diameter vesicles can be synthesized with DMPC in the absence of apoA-I and was therefore used as a phospholipid control. The effect on the glucose uptake was tested as described above. […] To also test for the contribution of the constituent POPC phospholipid to rHDL-induced glucose uptake, rHDL made with POPC was compared with 100 nm POPC vesicles containing no apoA-I protein.

Substance	GLUT4 in the sarcolemma plasma membrane (HA signal, in words) [1]	glucose uptake in adipocytes (in words) [2]	glucose uptake, fold change versus control ([3]; apoA-I fragment, 60 minutes, FIGS. 4b and 8b)	glucose uptake over basal/Control, repeated experiment ([3]; 2 μmol/l (60 μg/ml) POPC rHDL or 100 nmol/l insulin, 60 minutes, FIG. 7c)	glucose uptake over basal ([3]; 50 μg/ml rHDL (as apoA-I) or 100 nmol/l insulin, 1 hour, FIG. 1c, rHDL p=0.095)	increased glucose uptake ([3]; 2 h serum starved, 50 μg/ml (1.6 μmol/l) apoA-I or 100 nmol/l insulin, 1 hour, FIG. 1b)
190-243 polypeptide fragment: polypeptide fragment consisting of amino acids 190-243 of the full-length human apoA-I protein, C-terminal domain, 54-mer, recombinant (AEYHAKATEHLSTLSEKAKPALEDLRQGLLPVLESFKVSFLSALEEYTKKLNTQ; listed as Homo Sapiens)	greater membrane levels of GLUT4 protein	significantly induced	1.77±0.23 fold			
insulin	induced translocation of GLUT4 into the sarcolemma plasma membrane	significantly induced		2.4±1.0 fold	2.4±1.0 fold	2 fold
